Laboratory results published in patent publication US12590123B2, “Compounds and methods for treating cancer, viral infections, and allergic conditions” (Washington University, priority 2019, dated 2026).
Like-named read-outs stand apart in the source and are kept apart here. Starred links: 1 amine or outer side, 2 acyl side, 3 side chain; linkers in the order of their positions; H or OH if unused. Positions of bridges follow the written chain, without caps; N, C: chain ends. Non-standard residues stand in square brackets, D forms with d. Residues, ends and D or L forms follow the SMILES beside them. X6 = N=C(N)NCCC[C@H](N[*:1])C(=O)c1nc2ccc(C(=O)[*:2])cc2s1

Legend:
[1] = biological target: T1, activated hepsin (Homo sapiens, UniProt P05981); test: Fluorescent kinetic enzyme assay of hepsin activity (Boc-QAR-AMC); assay type: biochemical
T1 construct: purchased R&D Systems 4776-SE-010

[2] = system: VSVpp (SARS-2-S) entry into TMPRSS2-positive Calu-3 cells
[3] = biological target: recombinant thrombin (Homo sapiens, UniProt P00734); test: Chromogenic kinetic enzyme assay of thrombin (S2238); assay type: biochemical; conditions: Table 2; chromogenic assay; read-out: Thrombin* (IC50 nM)
Experimental: (§1) Using GraphPad Prism (GraphPad Software, San Diego, CA), a four-parameter curve fit was used to determine the inhibitor IC50s from a plot of the mean reaction velocity versus the inhibitor concentration. The IC50 values represent the average of three or more separate experimental determinations. Apparent Ki values were calculated from the IC50 values using the Cheng and Prusoff equation (Ki=IC50/(1+[S]/Km).
(§2) Using GraphPad Prism version 6.04 software program, (GraphPad Software, San Diego, CA, graphpad.com), a four parameter curve fit was used to determine the inhibitor IC50s from a plot of the mean reaction velocity versus the inhibitor concentration.
(§3) Fluorescent inhibitor and chromogenic proteolytic assays were performed for compounds prepared in Example 11 in general accordance with the procedures described in Example 9.

[4] = biological target: T2, KLK5 (Homo sapiens, UniProt Q9Y337); test: Fluorescent kinetic enzyme inhibitor assay of KLK5 (Boc-VPR-AMC); assay type: biochemical; conditions: Table 4; 7.5 nM KLK5, 100 μM substrate
T2 construct: purchased R&D Systems 1108-SE-010
T2 sequence (Q9Y337 23-293): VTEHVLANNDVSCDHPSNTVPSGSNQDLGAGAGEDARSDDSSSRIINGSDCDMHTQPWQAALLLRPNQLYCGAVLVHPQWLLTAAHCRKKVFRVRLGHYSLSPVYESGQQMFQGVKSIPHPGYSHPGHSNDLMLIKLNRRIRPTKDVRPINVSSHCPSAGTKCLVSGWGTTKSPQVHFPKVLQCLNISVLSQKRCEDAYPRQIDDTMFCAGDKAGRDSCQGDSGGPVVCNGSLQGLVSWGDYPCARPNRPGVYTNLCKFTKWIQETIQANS
Experimental: Fluorescent Kinetic Enzyme Inhibitor Assay of KLK5: Inhibitors (11-pt serial dilutions, 0-20 μM final concentration in reaction) were serially diluted in DMSO (2% DMSO final concentration) and then mixed with KLK5 (#1108-SE-010, R&D Systems, Minneapolis, Minnesota) in black 384 well plates (Corning #3575. Corning, NY). The final assay concentration for KLK5 is 7.5 nM in TNC buffer (25 mM Tris, 150 mM NaCl, 5 mM CaCl2), 0.01% Triton X-100, pH 8). After thirty minutes incubation at room temperature, Boc-VPR-AMC substrate was added. The final substrate concentrations for assay is 100 μM. Changes in fluorescence (excitation at 380 nm and emission at 460 nm) were measured at room temperature over time in a Biotek Synergy 2 plate reader (Winnoski, VT). Using GraphPad Prism version 6.04 software program, (GraphPad Software, San Diego, CA, graphpad.com), a four parameter curve fit was used to determine the inhibitor IC50s from a plot of the mean reaction velocity versus the inhibitor concentration. The IC50 values represent the average of three or more separate experimental determinations.

[5] = biological target: Factor Xa (Homo sapiens, UniProt P00742); test: Chromogenic kinetic enzyme assay of Factor Xa (S2222); assay type: biochemical; conditions: Table 2; chromogenic assay; read-out: Factor Xa* (IC50 nM)
Experimental: as §1, §2, §3

[6] = biological target: T3, matriptase (Homo sapiens, UniProt Q9Y5Y6); test: Fluorescent kinetic enzyme assay of matriptase activity (Boc-QAR-AMC); assay type: biochemical; conditions: Table 2; read-out: Matriptase (IC50 nM)
T3 construct: purchased R&D Systems 3946-SE-010
T3 sequence (Q9Y5Y6 615-855 limits assumed): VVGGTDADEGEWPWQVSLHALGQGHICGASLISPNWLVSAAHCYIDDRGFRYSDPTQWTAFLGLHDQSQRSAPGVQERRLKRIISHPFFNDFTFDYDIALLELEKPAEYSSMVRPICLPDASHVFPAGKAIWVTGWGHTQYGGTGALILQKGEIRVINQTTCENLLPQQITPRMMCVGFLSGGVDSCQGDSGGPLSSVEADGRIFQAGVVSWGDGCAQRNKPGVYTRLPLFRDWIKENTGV
Experimental: After thirty minutes of incubation at room temperature, Boc-QLR-AMC substrate was added (HGFA assay) or Boc-QAR-AMC substrate (matriptase, and hepsin assays). […] From a plot of the mean reaction velocity versus the inhibitor concentration, a non-linear four parameter curve fit was performed using GraphPad Prism (GraphPad Software, San Diego, CA) to determine inhibitor IC50s. The IC50 values were determined from the average of three or more separate experimental determinations. Apparent Ki values were calculated using the Cheng and Prusoff equation (Ki=IC50/(1+[S]/Km).
Inhibitors were pre-incubated with protease followed by the addition of the substrate. Inhibition of substrate proteolysis derived fluorescence was monitored kinetically over a period of one hour.

[7] = biological target: T4, recombinant HGFA serine protease domain (Homo sapiens, UniProt Q04756); test: Fluorescent kinetic enzyme assay of HGFA activity (Boc-QLR-AMC); assay type: biochemical; conditions: Table 2; read-out: HGFA (IC50 nM)
T4 construct: His6 tag (N); seven amino acid spacer plus TEV cleavage site (N); made in house; host or cells: High 5 insect cells (baculovirus; Sf9 for virus production)
T4 sequence (Q04756 373-655): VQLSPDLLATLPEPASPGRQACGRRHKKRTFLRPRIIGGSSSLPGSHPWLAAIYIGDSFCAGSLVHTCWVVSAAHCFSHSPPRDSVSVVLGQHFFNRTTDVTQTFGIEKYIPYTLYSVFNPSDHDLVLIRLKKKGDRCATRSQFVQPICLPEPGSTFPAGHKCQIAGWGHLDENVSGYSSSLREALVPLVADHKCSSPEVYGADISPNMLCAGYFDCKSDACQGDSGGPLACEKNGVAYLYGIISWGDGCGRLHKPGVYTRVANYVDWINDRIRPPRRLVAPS
In short: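 His-tagged HGFA protease domain from baculovirus-infected High 5 cells, 6.25 nM in pH 8 Tris/NaCl/5 mM CaCl2/0.01% Triton X-100 with 2% DMSO. IC50 from four-parameter velocity fit (≥3 runs); apparent Ki by Cheng–Prusoff.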

[8] = Table 2, read-out: Hepsin (IC50 nM)

Sequence of Factor Xa (P00742 235-488 limits assumed): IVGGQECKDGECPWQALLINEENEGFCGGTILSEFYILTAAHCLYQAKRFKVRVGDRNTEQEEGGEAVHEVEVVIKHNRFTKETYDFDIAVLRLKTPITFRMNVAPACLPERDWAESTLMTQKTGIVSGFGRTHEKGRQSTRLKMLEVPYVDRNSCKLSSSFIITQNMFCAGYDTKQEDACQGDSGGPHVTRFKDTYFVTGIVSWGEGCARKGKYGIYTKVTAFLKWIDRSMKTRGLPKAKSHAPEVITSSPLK
Sequence of Factor Xa (P00742 41-179 partner limits assumed): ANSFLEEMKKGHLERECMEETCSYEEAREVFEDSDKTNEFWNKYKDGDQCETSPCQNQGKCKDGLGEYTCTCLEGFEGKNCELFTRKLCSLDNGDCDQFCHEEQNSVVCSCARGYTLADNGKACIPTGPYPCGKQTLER
T1 sequence (P05981 163-417 limits assumed): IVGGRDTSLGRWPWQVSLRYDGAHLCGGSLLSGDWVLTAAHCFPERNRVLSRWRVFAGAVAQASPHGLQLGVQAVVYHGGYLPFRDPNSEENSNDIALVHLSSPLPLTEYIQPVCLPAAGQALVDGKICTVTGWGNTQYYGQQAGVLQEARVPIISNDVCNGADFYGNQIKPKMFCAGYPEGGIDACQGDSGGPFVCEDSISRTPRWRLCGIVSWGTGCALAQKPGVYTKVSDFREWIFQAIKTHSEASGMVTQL
T1 sequence (P05981 1-162 partner limits assumed): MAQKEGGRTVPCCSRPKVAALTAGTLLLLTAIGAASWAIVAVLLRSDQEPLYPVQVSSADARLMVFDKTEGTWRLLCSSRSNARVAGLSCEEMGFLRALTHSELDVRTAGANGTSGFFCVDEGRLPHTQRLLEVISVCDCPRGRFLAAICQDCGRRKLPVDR

## CC(=O)N[C@H]1CC(=O)NCCCC[C@@H](C(=O)N[C@@H](CCCNC(=N)N)C(=O)c2nc3ccccc3s2)NC(=O)[C@H](CC(C)C)NC1=O [VD2173, (3S,6S,14S)-6-acetamido-N—((S)-1-(benzo[d]thiazol-2-yl)-5-guanidino-1-oxopentan-2-yl)-3-isobutyl-2,5,8-trioxo-1,4,9-triazacyclotetradecane-14-carboxamide]
[1]; [8]
  IC50: 8.4 nM
[1]; Table 6, read-out: Hepsin IC50
  IC50: 10 nM
[2]
  EC50: 104 nM
[3]
  IC50: 699 nM

## CC(=O)N[C@@H](CC(C)C)C(=O)N[C@@H](CC(C)C)C(=O)N[C@H](C=O)CCCNC(=N)N [Leupeptin, reference compound]
[4]
  IC50: > 20000 nM

## CC(=O)N[C@H]1CC(=O)NCCCC[C@@H](C(=O)N[C@@H](CCCNC(=N)N)B(O)O)NC(=O)[C@H](CC(C)C)NC1=O [MM2030]
[4]
  IC50: 18100 nM

## CC(=O)N[C@H]1CC(=O)NCCCC[C@@H](C(=O)N[C@@H](CCCNC(=N)N)C(=O)c2nc3ccccc3s2)NC(=O)[C@H](CCC(N)=O)NC1=O [VD3152, (3S,6S,14S)-6-acetamido-3-(3-amino-3-oxopropyl)-N—((S)-1-(benzo[d]thiazol-2-yl)-5-guanidino-1-oxopentan-2-yl)-2,5,8-trioxo-1,4,9-triazacyclotetradecane-14-carboxamide]
[2]
  Calu-3 EC50 (nM): almost equivalent activity
  EC50: 138 nM

## CSCC[C@@H]1NC(=O)[C@@H](NC(C)=O)CC(=O)NCCCC[C@@H](C(=O)N[C@@H](CCCNC(=N)N)C(=O)c2nc3ccccc3s2)NC1=O [VD3173, (3S,6S,14S)-6-acetamido-N—((S)-1-(benzo[d]thiazol-2-yl)-5-guanidino-1-oxopentan-2-yl)-3-(2-(methylthio)ethyl)-2,5,8-trioxo-1,4,9-triazacyclotetradecane-14-carboxamide]
[2]
  Calu-3 EC50 (nM): almost equivalent activity
  EC50: 119 nM
[3]
  IC50: > 20000 nM

## CC(=O)N[C@@H](Cc1c[nH]c2ccccc12)C(=O)N[C@@H](CC(C)C)C(=O)N[C@@H](Cc1ccccc1)C(=O)N[C@@H](CCCNC(=N)N)C(=O)c1nc2ccccc2s1 [ZFH7064, Ac-WLFR-kbt]
[2]
  Calu-3 EC50 (nM): excellent potency
  EC50: 150 nM

## CC(=O)N[C@@H](CCCCN)C(=O)N[C@@H](CCC(N)=O)C(=O)N[C@@H](CC(C)C)C(=O)N[C@@H](CCCNC(=N)N)C(=O)c1nc2ccccc2s1 [ZFH7006, Ac-KQLR-kbt]
[2]
  EC50: 78 nM

## CC(=O)N[C@H]1CC(=O)N(C)CCCC[C@@H](C(=O)N[C@@H](CCCNC(=N)N)C(=O)c2nc3ccccc3s2)NC(=O)[C@H](CC(C)C)NC1=O [VD4192C1]
[1]; [8]
  IC50: 0.97 nM
[3]
  IC50: > 20000 nM
[5]
  IC50: > 20000 nM
[6]
  IC50: 111 nM
[7]
  IC50: 7730 nM

## CC(=O)N[C@H]1CCCCNC(=O)CCC(C(=O)N[C@@H](CCCNC(=N)N)C(=O)c2nc3ccccc3s2)NC(=O)[C@H](CCCNC(=N)N)NC1=O (some centres unmarked) [VD2109B]
[1]; [8]
  IC50: 0.04 nM
[3]
  IC50: > 20000 nM
[5]
  IC50: 155 nM
[6]
  IC50: 0.07 nM
[7]
  IC50: 2520 nM

## CC(=O)N[C@H](Cc1c[nH]c2ccccc12)C(=O)N[C@@H](Cc1ccccc1)C(=O)N[C@@H](CCCNC(=N)N)C(=O)c1nc2ccccc2s1 [PK-1-89, Ac-dWFR-kbt]
[2]
  EC50: 32 nM

## CC(=O)N[C@@H](CO)C(=O)N[C@@H](CCCCN)C(=O)N[C@@H](CC(C)C)C(=O)N[C@@H](CCCNC(=N)N)C(=O)c1nc2ccc(C(=O)N[C@H](C(N)=O)C(C)C)cc2s1 [ZFH7116, Ac-SKLR kbt V-amide] (Ac-SKL[X6]V-NH2)
[1]; Table 6, read-out: Hepsin IC50
  IC50: 0.5 nM
[2]
  EC50: 307 nM

## CC(=O)N[C@@H](CC(C)C)C(=O)N[C@@H](CC(C)C)C(=O)N[C@@H](CCCNC(=N)N)C(=O)c1nccs1 [ZFH6201, Ac-LLR-kt]
[2]
  EC50: 349 nM

## CC(=O)N[C@@H](Cc1c[nH]c2ccccc12)C(=O)N[C@@H](Cc1ccccc1)C(=O)N[C@@H](CCCNC(=N)N)C(=O)c1nc2ccccc2s1 [AcWFRkbt, Ac-WFR-kbt]
[4]
  IC50: > 20000 nM

## CC(=O)N[C@H]1CC(=O)NCCCC[C@@H](C(=O)N[C@@H](CCCNC(=N)N)C(=O)c2nc3ccc(C(=O)N[C@@H](C(N)=O)C(C)C)cc3s2)NC(=O)[C@H](CC(C)C)NC1=O [VD3056, 2-(((3S,6S,14S)-6-acetamido-3-isobutyl-2,5,8-trioxo-1,4,9-triazacyclotetradecane-14-carbonyl)-L-arginyl)-N—((R)-1-amino-3-methyl-1-oxobutan-2-yl)benzo[d]thiazole-6-carboxamide] (Ac-DLK[X6][dV]-NH2; lactam 1-3)
[1]; [8]
  IC50: 5.4 nM
[3]
  IC50: 33.9 nM
[5]
  IC50: 118 nM
[6]
  IC50: 11.2 nM
[7]
  IC50: 5380 nM

## CC(=O)N[C@H]1C/C=C\COc2ccc(cc2)C[C@@H](C(=O)N[C@@H](CCCNC(=N)N)C(=O)c2nc3ccccc3s2)NC(=O)[C@H](CC(C)C)NC1=O [VD4051, (7S,10S,13S,E)-7-acetamido-N—((S)-1-(benzo[d]thiazol-2-yl)-5-guanidino-1-oxopentan-2-yl)-10-isobutyl-8,11-dioxo-2-oxa-9,12-diaza-1(1,4)-benzenacyclotetradecaphan-4-ene-13-carboxamide]
[1]; [8]
  IC50: 102 nM
[2]
  EC50: 565 nM
[5]
  IC50: 8810 nM
[6]
  IC50: 80.2 nM

## CC(=O)N[C@H]1CC(=O)NCCCC[C@@H](C(=O)N[C@@H](CCCNC(=N)N)C(=O)c2nc3ccccc3s2)NC(=O)[C@H]([C@H](C)O)NC1=O [VD3157, (3S,6S,14S)-6-acetamido-N—((S)-1-(benzo[d]thiazol-2-yl)-5-guanidino-1-oxopentan-2-yl)-3-((S)-1-hydroxyethyl)-2,5,8-trioxo-1,4,9-triazacyclotetradecane-14-carboxamide]
[1]; [8]
  IC50: 5.8 nM
[3]
  IC50: > 20000 nM
[5]
  IC50: 13300 nM
[6]
  IC50: 3.7 nM
[7]
  IC50: 11800 nM

## CC(=O)N[C@H]1CC(=O)NCCCC[C@@H](C(=O)N[C@@H](CCCNC(=N)N)C(=O)c2nc3ccccc3s2)NC(=O)[C@H](C(C)C)NC1=O [VD3167, (3S,6S,14S)-6-acetamido-N—((S)-1-(benzo[d]thiazol-2-yl)-5-guanidino-1-oxopentan-2-yl)-3-isopropyl-2,5,8-trioxo-1,4,9-triazacyclotetradecane-14-carboxamide]
[1]; [8]
  IC50: 7.8 nM
[3]
  IC50: > 20000 nM
[5]
  IC50: 1510 nM
[6]
  IC50: 3.2 nM
[7]
  IC50: 1830 nM

## CC(=O)N[C@H]1CC(=O)N(C)CCCC[C@@H](C(=O)N[C@@H](CCCNC(=N)N)C(=O)c2nc3ccccc3s2)NC(=O)[C@H](CC(C)C)NC1=O [VD4192C2]
[1]; [8]
  IC50: 1.75 nM
[3]
  IC50: > 20000 nM
[5]
  IC50: 18500 nM
[6]
  IC50: 23.5 nM
[7]
  IC50: 8560 nM
